Two compounds from article PMC6748984, “The coral Platygyra verweyi exhibits local adaptation to long-term thermal stress through host-specific physiological and enzymatic response” (Scientific Reports, 2019) can be followed below.

SMILES strings stand for the structures. Where two headings read alike, the source gives them in different places.

The subject of experiment [1] is T1, MDH (malate dehydrogenase, major isozyme, DEAE peak II) of P. verweyi from NPP-OL.
T1 construct: gene MDH1; native, purified from host tissue extract of symbiotic coral; about 39 kDa by SDS-PAGE, native about 67 kDa, dimer
In words: NADH oxidation, absorbance at […] nm. As to conditions: 100 mM phosphate pH 7.0, about 27 °C, read-out: apparent Km. Type of experiment: biochemical, Platygyra verweyi.

For experiment [2], the system named is T2, MDH (malate dehydrogenase, major isozyme, DEAE peak II) of P. verweyi from WLT.
T2 construct: gene MDH1; native, purified from host tissue extract of symbiotic coral; about 38 kDa by SDS-PAGE, native about 64 kDa, dimer
In words: NADH oxidation, absorbance at […] nm. Type of experiment: biochemical, Platygyra verweyi. The settings on record: 100 mM phosphate pH 7.0, about 27 °C, read-out: apparent Km.

[3] abbreviates: NADH varied 38-95 µM, OAA fixed (1 mM [sic]).
The mark [4] stands for this setting: OAA varied 14-29 µM, NADH fixed (3 mM as printed).

One may read the Km as the substrate concentration at which the rate is half of its maximum. For `NC(=O)C1=CN([C@@H]2O[C@H](COP(=O)(O)OP(=O)(O)OC[C@H]3O[C@@H](n4cnc5c(N)ncnc54)[C@H](O)[C@@H]3O)[C@@H](O)[C@H]2O)C=CC1` [NADH], the Km in experiment [1] (setting [3]) came out at 7.5 µM; in experiment [2] (setting [3]), 12.7 µM.

For the compound `O=C(O)CC(=O)C(=O)O` [oxaloacetate], the Km was determined as 9.4 µM in experiment [1] (setting [4]) and 5.7 µM in experiment [2] (setting [4]).
